Test results taken from patent publication US7915256B2, “Triazolopyrazine compounds useful for the treatment of degenerative and inflammatory diseases” (Galapagos NV, priority 2006, dated 2011).
Where two headings read alike, the source gives them in different places. Values belong to the compound of their own block, whether it stands above or below them.

Experiments:
MAPKAPK5 = biological target: T1, MAPKAPK5 (Homo sapiens, UniProt Q8IW41); assay: MAPKAP-K5 assay (FlashPlate, 33P-ATP)
T1 sequence (Q8IW41 1-473): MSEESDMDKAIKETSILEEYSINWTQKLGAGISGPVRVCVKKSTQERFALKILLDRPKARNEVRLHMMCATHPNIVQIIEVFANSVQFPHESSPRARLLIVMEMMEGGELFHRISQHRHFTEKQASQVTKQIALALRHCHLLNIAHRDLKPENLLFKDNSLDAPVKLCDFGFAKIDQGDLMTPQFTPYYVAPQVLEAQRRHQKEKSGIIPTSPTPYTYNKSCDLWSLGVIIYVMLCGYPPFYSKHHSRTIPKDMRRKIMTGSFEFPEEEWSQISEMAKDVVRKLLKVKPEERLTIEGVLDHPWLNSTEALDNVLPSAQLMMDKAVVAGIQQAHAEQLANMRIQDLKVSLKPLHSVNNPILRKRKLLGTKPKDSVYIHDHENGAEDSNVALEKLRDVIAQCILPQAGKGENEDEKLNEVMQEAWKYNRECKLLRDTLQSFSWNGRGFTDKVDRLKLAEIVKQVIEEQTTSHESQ
Procedure: MAPKAP-K5 reactions are performed in FlashPlate format using 0.1 or 0.2 μCi 33P-ATP; 0.6 μM ATP; 1 mU MAPKAP-K5; 3 μM MAPKAP-K5 peptide substrate, incubated at room temperature for 30 minutes.
The MAPKAP-K5 kinase reaction is performed in a 384 well polypropylene plate (Matrix Technologies) and then transferred to a streptavidin-coated 384 well flashplate (Perkin-Elmer).
To wells containing 2 μL test compound or standard inhibitor, 13 μL Enzyme mix or diluent are added using a Hydra (Robbins Scientific).
Reactions are started by addition of 10 μL of [2,5×] substrate cocktail using a Multidrop (Thermo-Labsystems), to give final concentrations in the assay of:
Plates are incubated at room temperature for 30 minutes.
Reactions are terminated by the addition of 25 μL EDTA (50 mM) to each well using a Micro-fill (Biotek).
Reactions are transferred to a streptavidin-coated flashplate using a Zymark robotic system. Plates are incubated for 60 minutes at room temperature.
All wells are washed 3 times with 100 μl phosphate buffered saline using a Tecan plate washer.
Radioactivity is determined by scintillation counting of the flashplate (empty wells) on a Packard TopCount.
Enzyme Mix: • Enzyme • 50 mM Tris Hcl (pH 7.5) • 0.1 mM EGTA • 2 mM DTT • 1 mg/mL BSA
Reaction Buffer: • 50 mM Tris Hcl (pH 7.5) • 0.1 mM EGTA • 10 mM Magnesium acetate • 2 mM DTT

[1] = system: MMP1 expression by activated synovial fibroblasts (RASFs); assay: 'MMP assay': MMP1 ELISA on supernatant of complex trigger activated synovial fibroblasts; assay type: cell-based; details: Homo sapiens, Fibroblast, Table 4, 48 hrs
Procedure: A 384-well format ELISA for measurement of MMP1 is developed. Various primary antibodies are tested, as well as various ELISA protocols. […] The antibody is diluted in buffer 40 (1.21 g Tris base (Sigma), 0.58 g NaCl (Calbiochem) and 5 ml 10% NaN3 (Sigma) in 1 L milliQ water and adjusted to pH 8.5). After overnight incubation at 4° C., plates are washed with PBS (80 g NaCl, 2 g KCl (Sigma), 11.5 g Na2HPO4.7H2O and 2 g KH2PO4 in 10 L milliQ; pH 7.4) and blocked with 100 μL/well Casein buffer (2% Casein (VWR International) in PBS). Next day, casein buffer is removed from ELISA plates and replaced by 50 μL/well EC buffer (4 g casein, 2.13 g Na2HPO4 (Sigma), 2 g bovine albumin (Sigma), 0.69 g NaH2PO4.H2O (Sigma), 0.5 g CHAPS (Roche), 23.3 g NaCl, 4 ml 0.5 M EDTA pH 8 (Invitrogen), 5 ml 10% NaN3 in 1 L milliQ and adjusted to pH 7.0). 0.25 mM DTT (Sigma) is added to the thawed samples plates. After removal of the EC buffer, 20 μL of sample is transferred to the ELISA plates. After overnight incubation at 4° C. plates are washed twice with PBS and once with PBST (PBS with 0.05% Tween-20 (Sigma)) and incubated with 35 μL/well biotinylated anti-MMP1 antibody solution (R&D). This secondary antibody is diluted in buffer C (0.82 g NaH2PO4.H2O, 4.82 g Na2HPO4, 46.6 g NaCl, 20 g bovine albumin and 4 mL 0.5M EDTA pH 8 in 2 L milliQ and adjusted to pH 7.0) at a concentration of 5 μg/mL. After 2 h of incubation at RT, plates are washed as described above and incubated with 50 μL/well streptavidin-HRP conjugate (Biosource). Streptavidin-HRP conjugate is diluted in buffer C at a concentration of 0.25 μg/mL. After 45 min, plates are washed as described above and incubated for 5 min with 50 μL/well BM Chem ELISA Substrate (Roche). Readout is performed on the Luminoscan Ascent Luminometer (Labsystems) with an integration time of 200 msec or with an Envision reader (Perkin Elmer).
SFs are seeded at a density of 3000 cells/well in 96 well plates. 24 hrs after seeding, increasing concentrations of dexamethasone are added to the cells. […]

[2] = system: TNFα release by human PBMCs; assay: Cytokine (TNFα) release by LPS stimulated human PBMCs, ELISA; assay type: cell-based; details: ELISA of supernatant
Procedure: For the assay PBMCs are seeded at 2.5E6 cells/mL in 160 μL in 96-well plates (Nunc). Serial dilution of the test compounds are made first in DMSO (Sigma) and then diluted 50-fold in M199 medium (Gibco) containing 1% heat-inactivated FBS. Compounds are further 1/10 diluted in the assay plates to obtain final DMSO concentration of 0.2%. Cells are preincubated with the compounds for 1 hr at 37° C., 5% CO2. Then, cells are stimulated with LPS (Escherichia coli serotype 026:B6, Cat. No. L2654, Sigma) that is added in a volume of 20 μL to a final concentration of 1 μg/mL and cells are further cultured for 24 hr. The plates are centrifuged and the supernatant is collected and stored at −80° C. until analysis of appropriate dilutions in ELISAs.
After 4 hr incubation at RT, blocking buffer is removed and plates are washed once with PBST (1×PBS with 0.05% Tween-20 (Sigma)). Then, 40 μL of sample is transferred to the ELISA plates and plates are incubated at 4° C. […] Readout is performed on the Luminoscan Ascent Luminometer (Labsystems) with an integration time of 100 msec delivering raw data (RLU: relative luminescence units). […] Where compounds are tested at 8 concentrations (1/3 serial dilution), EC50-values can be calculated by curve fitting of the means of the PIN data achieved for a compound at each test concentration.

[3] = read-out: MAPKAPK5 IC50, Table 1, 0.6 μM ATP, 30 minutes room temperature
[4] = Table 1, 0.6 μM ATP, 30 minutes room temperature

Structure (SMILES): C[C@@H]1CN(c2ccc(Nc3ncc(-c4csc(C(N)=O)c4)n4ncnc34)cc2)[C@@H](C)CN1C [Compound 32]
EC50 ([2]; Homo sapiens, PBMC, 24 h, Table 5, LPS 1 μg/mL): 101 to 500 nM

Structure (SMILES): O=C(N[C@H]1CCN(Cc2ccccc2)C1)c1ccc(Nc2ncc(-c3cn[nH]c3)n3ncnc23)cc1 [Compound 191]
EC50 [1]: > 1000 nM

Structure (SMILES): NC(=O)c1cc(-c2cnc(Nc3ccc(N4CCN(CC5CC5)CC4)nc3)c3ncnn23)cs1 [Compound 54, 4-{8-[6-(4-[Cyclopropylmethyl]piperazin-1-yl)-pyridin-3-ylamino]-[1,2,4]triazolo[1,5-a]pyrazin-5-yl}thiophene-2-carboxylic acid amide]
EC50 ([2]; Table 5, LPS 1 μg/mL, 24 hr, read-out: PBMC EC50): > 1000 nM

Structure (SMILES): NC(=O)c1c(F)cc(-c2cnc(Nc3ccc(N4CCOCC4)cc3)c3ncnn23)cc1F [Compound 14]
MAPKAPK5 IC50 (nM) (MAPKAPK5; [4]): =

Structure (SMILES): O=C(NCc1ccc(O)cc1)c1cccc(Nc2ncc(-c3cn[nH]c3)n3ncnc23)c1 [Compound 131, N-(4-Hydroxybenzyl) 3-[5-(1H-pyrazol-4-yl)-[1,2,4]triazolo[1,5-a]pyrazin-8-ylamino]benzamide]
EC50 [1]: > 1000 nM

Structure (SMILES): Clc1cc(Nc2ncc(-c3cn[nH]c3)n3ncnc23)ccc1N1CCOCC1 [Compound 18]
MAPKAPK5 IC50 (nM) (MAPKAPK5; [4]): =

Structure (SMILES): NC(=O)c1cc(-c2cnc(Nc3ccc(OCCN4CCOCC4)cc3)c3ncnn23)cs1 [Compound 21, 4-(8-(4-(2-Morpholinoethoxy)phenylamino)-[1,2,4]triazolo[1,5-a]pyrazin-5-yl)thiophene-2-carboxamide]
IC50 (MAPKAPK5; [3]): 501 to 1000 nM

Continued, in another order:

IC50 (MAPKAPK5): 101 to 500 nM
Structure (SMILES): O=C(N[C@@H]1CCN(Cc2ccccc2)C1)c1ccc(Nc2ncc(-c3cn[nH]c3)n3ncnc23)cc1 [Compound 147]
EC50 [1]: > 1000 nM

IC50 (MAPKAPK5; [3]): > 1000 nM
Structure (SMILES): NC(=O)c1ccc(-c2cnc(Nc3ccc(OCCN4CCOCC4)cc3)c3ncnn23)s1 [Compound 22, 5-(8-(4-(2-Morpholinoethoxy)phenylamino)-[1,2,4]triazolo[1,5-a]pyrazin-5-yl)thiophene-2-carboxamide]

MAPKAPK5 IC50 (nM) (MAPKAPK5; [4]): =
Structure (SMILES): CC(C)N1CCN(c2ccc(Nc3ncc(-c4cc(F)c(C(N)=O)c(F)c4)n4ncnc34)cc2)CC1 [Compound 26]

IC50 (MAPKAPK5): 101 to 500 nM
Structure (SMILES): CC(C)N1CCC(c2ccc(Nc3ncc(-c4cnc5c(c4)CNC5=O)n4ncnc34)cc2)CC1 [Compound 190]

IC50 (MAPKAPK5): 101 to 500 nM
Structure (SMILES): CN(C)Cc1cc(Nc2ncc(-c3ccc4c(c3)CNC4=O)n3ncnc23)ccc1N1CCNCC1 [Compound 175]

IC50 (MAPKAPK5): 101 to 500 nM
Structure (SMILES): CCN1CCCC1CNC(=O)c1ccc(Nc2ncc(-c3cn[nH]c3)n3ncnc23)cc1 (centres unmarked) [Compound 163]
